14 compounds from PubChem BioAssay (NCI) can be followed below.

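1) Cells in 96-well plates. 2) Compound, 48 h, 5 concentrations. 3) Linear interpolation between surrounding doses. 4) Unreached endpoint = highest concentration. Here, GI50 denotes the concentration required for 50% inhibition of growth. At the TGI there is no net growth.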 Some results are limits rather than exact numbers.

What all share (experiment): inhibition of tumour cell growth, NCI panel, 48 h
Test [1] deals with MDA-MB-468 breast.
Test [2] concerns 786-0 renal.
Test [3] has as its system A498 renal.
Test [4] has as its system A549 NSCLC.
The test system of test [5] is ACHN renal.
The subject of test [6] is BT-549 breast.
The subject of test [7] is CAKI-1 renal.
For test [8], the system named is CCRF-CEM leukemia.
Test [9] relates to COLO 205 colon.
The subject of test [10] is DU-145 prostate.
In test [11] the test system is EKVX NSCLC.
The test system of test [12] is HCC-2998 colon.
In test [13] the test system is HCT-116 colon.
In test [14] the test system is HCT-15 colon.
Test [15] relates to HL-60(TB) leukemia.
For test [16], the system named is HOP-62 NSCLC.
The test system of test [17] is HOP-92 NSCLC.
The test system of test [18] is HS 578T breast.
Test [19] has as its system HT29 colon.
Test [20] relates to IGROV1 ovarian.
The test system of test [21] is K-562 leukemia.
The test system of test [22] is KM12 colon.
The test system of test [23] is LOX IMVI melanoma.
The test system of test [24] is M14 melanoma.
For test [25], the system named is MALME-3M melanoma.
Test [26] concerns MCF7 breast.
Test [27] relates to MDA-MB-231 breast.
Test [28] deals with MDA-MB-435.
Test [29] concerns MOLT-4 leukemia.
Test [30] relates to NCI-H226 lung.
The test system of test [31] is NCI-H23 lung.
The subject of test [32] is NCI-H460 lung.
Test [33] deals with NCI-H522 lung.
The test system of test [34] is OVCAR-3 ovarian.
The subject of test [35] is OVCAR-4 ovarian.
The test system of test [36] is OVCAR-5 ovarian.
Test [37] deals with OVCAR-8 ovarian.
For test [38], the system named is PC-3 prostate.
For test [39], the system named is RPMI-8226 leukemia.
The test system of test [40] is RXF 393 renal.
Test [41] deals with SF-268 CNS.
The subject of test [42] is SF-295 CNS.
The test system of test [43] is SF-539 CNS.
Test [44] deals with SK-MEL-2 melanoma.
The subject of test [45] is SK-MEL-28 melanoma.
The test system of test [46] is SK-MEL-5 melanoma.
The subject of test [47] is SK-OV-3 ovarian.
Test [48] relates to SN12C renal.
The test system of test [49] is SNB-19 CNS.
In test [50] the test system is SNB-75 CNS.
Test [51] deals with SR leukemia.
In test [52] the test system is SW-620 colon.
For test [53], the system named is T-47D breast.
In test [54] the test system is TK-10 renal.
Test [55] concerns U251 CNS.
For test [56], the system named is UACC-257 melanoma.
Test [57] has as its system UACC-62 melanoma.
Test [58] relates to UO-31 renal.

`COc1cc(-c2cc(-c3nc4ccc(Cl)cc4[nH]3)[nH]n2)cc(OC)c1OC`: in test [1], the GI50 is 2330 nM and the TGI came out at 13.5 µM.
The like results for `COc1ccc(-c2nc(-c3nc4ccc(OC)cc4[nH]3)cc3c2[nH]c2ccccc23)cc1` were, in that order, 3160 nM and above 100 µM.
The like results for `Cc1[nH]c(=O)[nH]c(=O)c1CO` were, in that order, above 100000 nM and above 100 µM.
The like results for `C[C@H]1[C@H](C)CC[C@]2(C(=O)O)CC[C@]3(C)C(=CC[C@@H]4[C@@]5(C)C/C(=C/c6ccco6)C(=O)C(C)(C)[C@@H]5CC[C@]43C)[C@H]12` were, in that order, 4070 nM and 17.4 µM.
With `Nc1c(C(=O)Nc2ccccc2Cl)sc2nc3c(cc12)CCCCCC3`, in [1], the GI50 was 2250 nM and the TGI was 12 µM.
On the same counts, the results for `CCn1cnc2c(Nc3cccc(Cl)c3)nc(N[C@@H]3CCCC[C@@H]3N)nc21` are 1860 nM and 4.36 µM.
The like results for `COc1cc2nc(Nc3cccc(F)c3)nc(Nc3cc(C)[nH]n3)c2cc1OC` were, in that order, 1630 nM and 3.23 µM.
In the case of `CN(C(=O)c1ccc(C(F)(F)F)cc1C(F)(F)F)c1sc2c(c1C#N)CCC(=O)C2`, the GI50 in [2] was 15.7 µM; in test [3] it was 16.9 µM; in test [4], 18.1 µM; in [5], 14.2 µM; in test [6] it was 2820 nM; in [7], 7.01 µM. For the same compound, the GI50 is 2730 nM in [8]; 16 µM in test [9]; 17.3 µM in [10]; 14.2 µM in test [11]; 15.1 µM in test [12]; 3.65 µM in test [13]. In addition, the GI50 in [14] was 3.09 µM; in test [15], 3.33 µM; in test [16], 16.1 µM; in test [17], 5.35 µM; in test [18], 3.92 µM; in [19] it was 17.6 µM. The GI50 is 11.3 µM in [20]; 2700 nM in [21]; 4.25 µM in [22]; 4.09 µM in test [23]; 4.18 µM in test [24]; 18.1 µM in test [25]. For the same compound, the GI50 in test [26] is 14.6 µM; in test [27] it was 13.1 µM; in [28], 15.7 µM; in test [1], 2350 nM; in test [29], 4.13 µM; in [30] it was 16.7 µM. For the same compound, the GI50 is 6.94 µM in test [31]; 17.2 µM in test [32]; 1620 nM in test [33]; 2400 nM in [34]; 3 µM in test [35]; 21.3 µM in [36]. Besides, the GI50 is 4.66 µM in test [37]; 2690 nM in test [38]; 2820 nM in test [39]; 2740 nM in test [40]; 12.1 µM in test [41]; 12.3 µM in test [42]. Moreover, the GI50 in [43] is 2340 nM; in [44], 14.3 µM; in test [45], 21.4 µM; in test [46] it was 8.15 µM; in test [47], 15.3 µM; in test [48], 10.5 µM. Also, the GI50 in test [49] is 12.4 µM; in [50] it was 5.25 µM; in test [51], 2640 nM; in test [52], 3.22 µM; in [53], 4.43 µM; in test [54], 14.6 µM. Besides, the GI50 in [55] is 1980 nM; in test [56], 16.3 µM; in [57], 4.48 µM; in [58] it was 3.15 µM. Further, the TGI was 34.7 µM in [2]; 30.9 µM in [3]; 41.8 µM in test [4]; 29.6 µM in test [5]; 8.29 µM in test [6]; 21.1 µM in [7]. Besides, the TGI was found to be 14.6 µM in [8]; 30.5 µM in test [9]; 31.3 µM in test [10]; 30.8 µM in [11]; 29.5 µM in [12]; 14.4 µM in [13]. Also, the TGI in test [14] is 11.6 µM; in test [15], 25.6 µM; in test [16] it was 30.3 µM; in [17], 19.3 µM; in test [18], 28.7 µM; in test [19], 34.4 µM. Further, the TGI in test [20] is 25.7 µM; in test [21] it was above 100 µM; in test [22], 17.5 µM; in [23], 15.5 µM; in test [24] it was 19.2 µM; in [25] it was 36.1 µM. Moreover, the TGI in test [26] is 31 µM; in test [27], 35 µM; in test [28], 30.5 µM; in test [1], 6.93 µM; in [29] it was 27.8 µM; in test [30], 40.9 µM. For the same compound, the TGI in test [31] was 22.8 µM; in [32] it was 33.2 µM; in [33], 3.38 µM; in test [34], 6.1 µM; in [35], 10.3 µM; in [36] it was 39.6 µM. Besides, the TGI is 19 µM in test [37]; 6.93 µM in test [38]; 13.3 µM in test [39]; 10.1 µM in test [40]; 32.8 µM in [41]; 25.6 µM in [42]. In addition, the TGI in [43] was determined as 5.04 µM; in test [44] it was 31 µM; in [45] it was 43.8 µM; in test [46] it was 21.1 µM; in [47], 28.9 µM; in test [48], 29.6 µM. Further, the TGI was determined as 26.8 µM in test [49]; 20.7 µM in test [50]; 11 µM in [51]; 12.3 µM in test [52]; 30.4 µM in [53]; 28 µM in test [54]. Besides, the TGI worked out at 4.68 µM in test [55], 32.8 µM in [56], 17 µM in test [57] and 13.7 µM in test [58].
`NCCC(O)(P(=O)(O)O)P(=O)(O)O`: in test [1], the GI50 was above 100000 nM and the TGI was above 100 µM.
On the same counts, the results for `COc1ccc(NC(=O)c2sc3nc(C)c(C(O)c4ccccc4)cc3c2N)cc1` (configuration not stated) are 1900 nM and 70.1 µM.
For `Nc1ccc(/C=N/Nc2ccnc3c(N)cccc23)c2cccnc12`, in [1], the GI50 was 1390 nM and the TGI turned out to be 2.99 µM.
On the same counts, the results for `COc1ccccc1CNCCCN1C(=O)c2ccc3c4c(ccc(c24)C1=O)C(=O)N(CCCNCCCN)C3=O` are 246 nM and 2.24 µM.
The like results for `COC(=O)C1=C(C(=O)OC)C23C=C(C)C1C2=C(C)C1(CC1)[C@@](C)(O)C3=O` (some centres not stated) were, in that order, 181 nM and 0.421 µM.
Turning to `CCOC(=O)c1c(C(F)(F)F)n([O-])c2ccc(OC)cc2[n+]1=O`, in test [1], the GI50 is 2580 nM and the TGI is 7.41 µM.
